# Source: patent publication US20170217946A1, “AMINO-SUBSTITUTED ISOXAZOLES” (Bayer Pharma Aktiengesellschaft, priority 2014, published 2017)
# Target: T1, human kinase Mps-1 (Homo sapiens, UniProt P33981)
# T1 construct: human full length recombinant Mps-1 kinase; GST (N); purchased Invitrogen, Karslruhe, Germany PV4071
# T1 sequence (P33981 1-857): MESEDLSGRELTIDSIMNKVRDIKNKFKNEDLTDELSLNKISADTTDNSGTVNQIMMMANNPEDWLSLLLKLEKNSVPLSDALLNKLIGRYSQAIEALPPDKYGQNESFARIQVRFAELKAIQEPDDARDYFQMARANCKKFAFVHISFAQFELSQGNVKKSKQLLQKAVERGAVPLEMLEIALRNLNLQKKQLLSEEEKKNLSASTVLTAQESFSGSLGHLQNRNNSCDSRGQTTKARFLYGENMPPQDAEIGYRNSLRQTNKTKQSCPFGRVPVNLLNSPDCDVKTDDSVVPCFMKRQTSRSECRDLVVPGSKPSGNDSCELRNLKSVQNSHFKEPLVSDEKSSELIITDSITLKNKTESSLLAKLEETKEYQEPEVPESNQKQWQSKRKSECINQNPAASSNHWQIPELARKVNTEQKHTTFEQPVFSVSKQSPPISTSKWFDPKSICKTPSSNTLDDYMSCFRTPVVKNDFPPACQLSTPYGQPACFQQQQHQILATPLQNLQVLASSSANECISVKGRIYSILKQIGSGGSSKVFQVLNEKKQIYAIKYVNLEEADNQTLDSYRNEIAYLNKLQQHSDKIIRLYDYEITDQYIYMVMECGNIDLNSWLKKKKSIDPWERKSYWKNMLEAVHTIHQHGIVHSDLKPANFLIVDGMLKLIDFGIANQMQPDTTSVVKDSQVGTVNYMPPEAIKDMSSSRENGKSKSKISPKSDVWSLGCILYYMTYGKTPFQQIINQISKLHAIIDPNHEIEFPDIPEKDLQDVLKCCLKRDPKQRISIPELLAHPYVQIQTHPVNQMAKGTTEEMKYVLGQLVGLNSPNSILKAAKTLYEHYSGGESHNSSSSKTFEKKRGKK
# Assay: Mps-1 kinase assay (TR-FRET)
# Type: biochemical
# Settings: 10 μM ATP; read-out: Mps1 avg (IC50)
# Procedure: The human kinase Mps-1 phosphorylates a biotinylated substrate peptide. Detection of the phosphorylated product is achieved by time-resolved fluorescence resonance energy transfer (TR-FRET) from Europium-labelled anti-phospho-Serine/Threonine antibody as donor to streptavidin labelled with cross-linked allophycocyanin (SA-XLent) as acceptor. Compounds are tested for their inhibition of the kinase activity.
# N-terminally GST-tagged human full length recombinant Mps-1 kinase (purchased from Invitrogen, Karslruhe, Germany, cat. no PV4071) was used. […]
# The resulting mixture was incubated 1 h at 22° C. to allow the binding of the phosphorylated peptide to the anti-phospho(Ser/Thr)-Europium-antibody. Subsequently the amount of phosphorylated substrate was evaluated by measurement of the resonance energy transfer from the Europium-labelled anti-phospho(Ser/Thr) antibody to the Streptavidin-XLent. Therefore, the fluorescence emissions at 620 nm and 665 nm after excitation at 350 nm was measured in a Viewlux TR-FRET reader (PerkinElmer LAS, Rodgau-Jügesheinn, Germany). The “blank-corrected normalized ratio” (a Viewlux specific readout, similar to the traditional ratio of the emissions at 665 nm and at […], in which blank and Eu-donor crosstalk are subtracted from the 665 nm signal before the ratio is calculated) was taken as the measure for the amount of phosphorylated substrate. […]
structure (smiles),measurement,value
"Cc1noc(Nc2cnc(C(=O)NC3CCN(CC(F)F)CC3)cn2)c1C(=O)Nc1ccc(F)c(F)c1 [Example 1b, N-[1-(2,2-Difluoroethyl)piperidin-4-yl]-5-({4-[(3,4-difluorophenyl)carbamoyl]-3-methyl-1,2-oxazol-5-yl}amino)pyrazine-2-carboxamide]",IC50,16 µM
